Assay results reported in ChEMBL document CHEMBL1155902, “Nitrogen-containing flavonoid analogues as CDK1/cyclin B inhibitors: synthesis, SAR analysis, and biological activity” (Bioorg Med Chem, 2008).

Biological target: Cyclin-dependent kinase 1/cyclin B1 (Homo sapiens, UniProt P06493)
Assay: Inhibition of Cdk1/cyclin B
Type: protein-complex assay

Chain of Cyclin-dependent kinase 1/cyclin B1 (P06493 whole entry): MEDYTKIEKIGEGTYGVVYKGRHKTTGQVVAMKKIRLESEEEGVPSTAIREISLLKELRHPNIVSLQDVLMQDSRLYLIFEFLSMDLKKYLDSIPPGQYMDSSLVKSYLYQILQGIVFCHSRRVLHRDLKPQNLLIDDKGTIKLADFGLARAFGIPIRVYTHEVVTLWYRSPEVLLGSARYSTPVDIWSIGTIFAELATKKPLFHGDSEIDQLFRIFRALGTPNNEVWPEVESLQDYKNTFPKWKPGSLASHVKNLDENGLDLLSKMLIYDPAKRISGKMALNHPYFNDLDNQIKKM
Chain of Cyclin-dependent kinase 1/cyclin B1 (P14635 whole entry, further chain): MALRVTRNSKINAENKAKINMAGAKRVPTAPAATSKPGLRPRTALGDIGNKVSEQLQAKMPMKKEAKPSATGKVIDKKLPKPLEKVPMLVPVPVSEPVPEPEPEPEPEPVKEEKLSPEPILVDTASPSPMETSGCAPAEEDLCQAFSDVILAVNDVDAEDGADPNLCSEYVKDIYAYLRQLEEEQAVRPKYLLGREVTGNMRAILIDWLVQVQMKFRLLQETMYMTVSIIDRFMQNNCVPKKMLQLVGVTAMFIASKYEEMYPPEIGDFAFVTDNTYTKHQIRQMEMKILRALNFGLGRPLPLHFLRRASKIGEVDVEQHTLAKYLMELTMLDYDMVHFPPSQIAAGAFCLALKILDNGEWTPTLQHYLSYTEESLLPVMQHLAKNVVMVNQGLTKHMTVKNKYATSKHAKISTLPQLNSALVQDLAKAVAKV

Row | Compound | IC50 [µM]
1 | O=c1cc(-c2ccccc2)oc2c(CN3CCCCC3)c(O)c(O)c(O)c12 | 1.28
2 | O=c1c(O)c(-c2ccc(O)c(O)c2)oc2cc(O)cc(O)c12 [QUERCETIN] | > 20
3 | COc1cc(O)c(C(=O)/C=C/c2ccccc2)cc1CN1CCSCC1 | > 20
4 | O=c1cc(-c2ccccc2)oc2cc(O)c(O)c(O)c12 [BAICALEIN] | 6.53
5 | CN1CCN(Cc2c(O)cc(O)c3c(=O)c(O)c(-c4ccc(O)c(O)c4)oc23)CC1 | > 20
6 | CN(C)Cc1c(O)cc(O)c2c(=O)c(O)c(-c3ccc(O)c(O)c3)oc12 | 15.7
7 | O=C(O)[C@H]1O[C@@H](Oc2cc3oc(-c4ccccc4)cc(=O)c3c(O)c2O)[C@H](O)[C@@H](O)[C@@H]1O [BAICALIN] | 14.4
8 | CN(C)Cc1c(O)c(O)c(O)c2c(=O)cc(-c3ccccc3)oc12 | 1.05
9 | COc1cc(O)c(C(=O)/C=C/c2ccccc2)cc1CN1CCOCC1 | > 20
10 | O=c1cc(-c2ccccc2)oc2c(CN3CCCC3)c(O)c(O)c(O)c12 | 1.22
11 | O=c1c(O)c(-c2ccc(O)c(O)c2)oc2c(CN3CCCCC3)c(O)cc(O)c12 | 18.7
12 | COc1ccc(C(=O)/C=C/c2ccccc2)c(O)c1 | > 20

Continued, values first:

Row | IC50 [µM] | Compound
13 | 0.27 | CN1CCN(Cc2c(O)c(O)c(O)c3c(=O)cc(-c4ccccc4)oc23)CC1
14 | > 20 | COc1cc(O)c(C(=O)/C=C/c2ccccc2)cc1CN1CCN(C)CC1
15 | > 20 | O=c1c(O)c(-c2ccc(O)c(O)c2)oc2c(CN3CCOCC3)c(O)cc(O)c12
16 | 0.38 | O=c1cc(-c2ccccc2)oc2c(CN3CCSCC3)c(O)c(O)c(O)c12
17 | 11.6 | COC(=O)[C@H]1O[C@@H](Oc2cc3oc(-c4ccccc4)cc(=O)c3c(O)c2O)[C@H](O)[C@H](O)[C@@H]1O [BAICALIN METHYLATE]
18 | > 20 | COc1cc(O)c(C(=O)/C=C/c2ccccc2)cc1CN1CCCC1
19 | > 20 | COc1cc(O)c(C(=O)/C=C/c2ccccc2)cc1CN1CCCCC1
20 | > 20 | COc1cc(O)c(C(=O)/C=C/c2ccccc2)cc1CN(C)C
21 | 0.28 | O=c1cc(-c2ccccc2)oc2c(CN3CCOCC3)c(O)c(O)c(O)c12
